Measurements taken from patent US20250320224A1 (DOMAIN THERAPEUTICS, priority 2022, published 2025).
Where a name gives a salt, the structure may show the parent alone.

Target: T1, human PAR-2 (hPAR-2) receptor (Homo sapiens, UniProt P55085)
T1 construct: expressed in HEK-293 cells in an endogenous manner; endogenous in cells; host or cells: HEK-293
T1 sequence (P55085 26-397): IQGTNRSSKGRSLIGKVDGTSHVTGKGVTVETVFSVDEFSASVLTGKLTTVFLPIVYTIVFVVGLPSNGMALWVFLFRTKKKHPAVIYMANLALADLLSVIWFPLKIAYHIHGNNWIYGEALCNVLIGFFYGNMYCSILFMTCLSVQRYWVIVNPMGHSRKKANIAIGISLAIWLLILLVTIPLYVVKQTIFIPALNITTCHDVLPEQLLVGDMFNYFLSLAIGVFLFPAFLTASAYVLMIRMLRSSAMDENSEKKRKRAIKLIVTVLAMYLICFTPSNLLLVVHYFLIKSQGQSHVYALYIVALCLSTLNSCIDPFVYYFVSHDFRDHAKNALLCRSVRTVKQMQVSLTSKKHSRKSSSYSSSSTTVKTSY
Assay: In vitro human PAR-2 functional antagonist activity using calcium assays
Format: cell-based
Settings: hPAR-2 endogenously expressed in HEK-293 cells; stimulated by 2-Furoyl-LIGRLO-NH2 peptide; Fluo4AM intracellular calcium, FLIPR Tetra
Description: Example 283: In Vitro Human PAR-2 Functional Antagonist Activity Using Calcium Assays
Examples of the present invention were tested successively for their agonist and antagonist activities on human PAR-2 (hPAR-2) receptor expressed in HEK-293 cells in an endogenous manner. Compounds exert agonist activity if, by themselves in absence of the 2-Furoyl-LIGRLO-NH2 peptide (selective hPAR-2 agonist), they activate PAR-2; they exert antagonist activity if they decrease the action of the 2-Furoyl-LIGRLO-NH2 peptide on the receptor. The assay used to determine compound activity is based on calcium measurement.
Cell Culture: HEK-293 cells were maintained in Dulbecco's Modified Eagle's Medium supplemented with 10% Foetal Calf Serum, 1% Penicillin/Streptomycin at 37° C./5% CO2. Flasks for tests (F75) are seeded with 6e+06 cells 24 h before the experiment at 37° C./5% CO2.
Calcium assay: Receptor activity was detected by changes in intracellular calcium measured using the fluorescent Ca^2+ sensitive dye, Fluo4AM (Molecular Probes).
The day of the assay, medium was replaced by assay buffer (HBSS 1× (Gibco 14175-053), Hepes 20 mM, MgSO4-7H2O 1 mM, Na2CO3 3.3 mM, CaCl2—2H2O 2.6 mM, 0.5% bovine serum albumin (BSA), Probenecid 2.5 mM, 0.1 mg/mL Pluronic Acid) and complemented with 1 μM Fluo4AM and cells were incubated during 1:30 h at 37° C.
Cells were then detached, resuspended in assay buffer and seeded in 384 wells, transparent-flat bottom black walled plates (2e+04 cells per well). Plates were incubated at +22° C. for 20 min. Compounds stock solutions were prepared in 100% DMSO and dilutions in test buffer were carried out in polypropylene plates with a digital dispenser (D300e, Tecan). Compounds were added to the cells and intracellular Ca^2+ measurements were collected at the same time on FLIPR Tetra® (Molecular Devices) with specific filters (Exc: 470-495 nm/Em: 515-575 nm).
Agonist and antagonist activities of compounds were consecutively evaluated on the same cell plate. Agonist activity was first measured after 10 min incubation with the compound alone. Then, cells were stimulated by an […] of the 2-Furoyl-LIGRLO-NH2 peptide and fluorescence was recorded for an additional 5 min. EC50 of the 2-Furoyl-LIGRLO-NH2 peptide was the concentration giving 80% of the maximal 2-Furoyl-LIGRLO-NH2 response. Agonist activities are evaluated in comparison to basal signals evoked by assay buffer or maximal 2-Furoyl-LIGRLO-NH2 response. […] Antagonist activities are evaluated in comparison to basal signals evoked by assay buffer or EC50 of 2-Furoyl-LIGRLO-NH2 alone.

Compound | IC50 [nM]
Cc1cc(N2CCN(C(=O)c3cnc4c(n3)C3(CN4c4ccc(Cl)c(F)c4)CC(C)(C)C3)C(C)(C)C2)nc(C)c1C(=O)O [Example 247, 6-(4-(5′-(4-chloro-3-fluorophenyl)-3,3-dimethyl-5′,6′-dihydrospiro[cyclobutane-1,7′-pyrrolo[2,3-b]pyrazine]-2′-carbonyl)-3,3-dimethylpiperazin-1-yl)-2,4-dimethylnicotinic acid] | < 500
Cc1cc(N2CCN(C(=O)c3cnc4c(n3)C3(CCCC3)CN4c3ccc(F)c(F)c3)C(C)(C)C2)nc(C)c1C(=O)O [Example 223, 6-(4-(5′-(3,4-difluorophenyl)-5′,6′-dihydrospiro[cyclopentane-1,7′-pyrrolo[2,3-b]pyrazine]-2′-carbonyl)-3,3-dimethylpiperazin-1-yl)-2,4-dimethylnicotinic acid] | < 500
COC(=O)c1c(C)cc(N2CCN(C(=O)c3ccc4c(n3)C(C)(C)CN4c3ccccn3)C(C)(C)C2)nc1C [Example 135, methyl 6-(4-(3,3-dimethyl-1-(pyridin-2-yl)-2,3-dihydro-1H-pyrrolo[3,2-b]pyridine-5-carbonyl)-3,3-dimethylpiperazin-1-yl)-2,4-dimethylnicotinate] | 500 to 10000
COC(=O)CCCCCCC(=O)N1CCN(C(=O)c2cnc3c(n2)C2(CN3c3ccc(Cl)c(F)c3)CC(C)(C)C2)C(C)(C)C1 [Example 259, methyl 8-(4-(5′-(4-chloro-3-fluorophenyl)-3,3-dimethyl-5′,6′-dihydrospiro[cyclobutane-1,7′-pyrrolo[2,3-b]pyrazine]-2′-carbonyl)-3,3-dimethylpiperazin-1-yl)-8-oxooctanoate] | < 500
Cc1cc(N2CCN(C(=O)c3cnc4c(n3)C(C)(C)CN4CCc3ccc(F)cc3)C(C)(C)C2)nc(C)c1C(=O)O [Example 213] | 500 to 10000
Cc1cc(N2CCN(C(=O)c3ccc4c(n3)C(C)(C)CN4C3CCC(C(N)=O)CC3)C(C)(C)C2)nc(C)c1C(=O)O (stereo not shown) [Example 162, 6-(4-(1-(4-carbamoylcyclohexyl)-3,3-dimethyl-2,3-dihydro-1H-pyrrolo[3,2-b]pyridine-5-carbonyl)-3,3-dimethylpiperazin-1-yl)-2,4-dimethylnicotinic acid] | 500 to 10000
CC1(C)CN(c2ccc(Cl)c(F)c2)Cc2sc(C(=O)N3CCN(c4ccc(CC(=O)O)cn4)CC3(C)C)nc21 [Example 270, 2-(6-(4-(5-(4-chloro-3-fluorophenyl)-7,7-dimethyl-4,5,6,7-tetrahydrothiazolo[5,4-c]pyridine-2-carbonyl)-3,3-dimethylpiperazin-1-yl)pyridin-3-yl)acetic acid] | 500 to 10000
Cc1cc(N2CCN(C(=O)c3ccc4c(n3)C(C)(C)CN4c3ccc4c(c3)COC4)C(C)(C)C2)nc(C)c1C(=O)O [Example 209, 6-(4-(1-(1,3-dihydroisobenzofuran-5-yl)-3,3-dimethyl-2,3-dihydro-1H-pyrrolo[3,2-b]pyridine-5-carbonyl)-3,3-dimethylpiperazin-1-yl)-2,4-dimethylnicotinic acid] | < 500

Second part, the molecule after the results:

IC50 [nM] | Compound
< 500 | Cc1ccc(N2CC(C)(C)c3nc(C(=O)N4CCN(c5cc(C)c(C(=O)O)c(C)n5)CC4(C)C)ccc32)cc1F [Example 85, 6-(4-(1-(3-fluoro-4-methylphenyl)-3,3-dimethyl-2,3-dihydro-1H-pyrrolo[3,2-b]pyridine-5-carbonyl)-3,3-dimethylpiperazin-1-yl)-2,4-dimethylnicotinic acid]
< 500 | CC1CC2(C1)CN(c1ccc(Cl)c(F)c1)c1ccc(C(=O)N3CCN(c4ccc(CC(=O)O)cn4)CC3(C)C)nc12 (stereo not shown) [Example 154, 2-(6-(4-(1′-(4-chloro-3-fluorophenyl)-3-methyl-1′,2′-dihydrospiro[cyclobutane-1,3′-pyrrolo[3,2-b]pyridine]-5′-carbonyl)-3,3-dimethylpiperazin-1-yl)pyridin-3-yl)acetic acid]
500 to 10000 | CO[C@H]1CN(C(=O)c2ccc3c(n2)C(C)(C)CN3c2ccc(Cl)c(F)c2)CC[C@H]1CC(=O)O [Example 37, 2-((3R,4S)-1-(1-(4-chloro-3-fluorophenyl)-3,3-dimethyl-2,3-dihydro-1H-pyrrolo[3,2-b]pyridine-5-carbonyl)-3-methoxypiperidin-4-yl)acetic acid]
< 500 | CO[C@@H]1CCC2(C1)CN(c1ccc(Cl)c(F)c1)c1ccc(C(=O)N3CCN(c4cc(C)c(C(=O)O)c(C)n4)CC3(C)C)nc12 (stereo partly drawn) [Example 144, 6-(4-((3R)-1′-(4-chloro-3-fluorophenyl)-3-methoxy-1′,2′-dihydrospiro[cyclopentane-1,3′-pyrrolo[3,2-b]pyridine]-5′-carbonyl)-3,3-dimethylpiperazin-1-yl)-2,4-dimethylnicotinic acid]
500 to 10000 | CC1(C)CN(c2ccsc2)c2ccc(C(=O)N3CCNC(=O)C3(C)C)nc21 [Example 11, 4-(3,3-dimethyl-1-(thiophen-3-yl)-2,3-dihydro-1H-pyrrolo[3,2-b]pyridine-5-carbonyl)-3,3-dimethylpiperazin-2-one]
< 500 | Cc1cc(N2CCN(C(=O)c3ccc4c(n3)C(C)(C)CN4c3ccc(C(F)(F)F)c(F)c3)C(C)(C)C2)nc(C)c1C(=O)O [Example 275, 6-(4-(1-(3-fluoro-4-(trifluoromethyl)phenyl)-3,3-dimethyl-2,3-dihydro-1H-pyrrolo[3,2-b]pyridine-5-carbonyl)-3,3-dimethylpiperazin-1-yl)-2,4-dimethylnicotinic acid]
< 500 | Cc1cc(N2CCN(C(=O)c3ccc4c(n3)C3(CCOCC3)CN4c3ccc(Cl)c(F)c3)C(C)(C)C2)nc(C)c1C(=O)O [Example 56, 6-(4-(1′-(4-chloro-3-fluorophenyl)-1′,2,2′,3,5,6-hexahydrospiro[pyran-4,3′-pyrrolo[3,2-b]pyridine]-5′-carbonyl)-3,3-dimethylpiperazin-1-yl)-2,4-dimethylnicotinic acid]
< 500 | CCOC(=O)CCCC(=O)N1CCN(C(=O)c2ccc3c(n2)C(C)(C)CN3c2ccc(Cl)c(F)c2)C(C)(C)C1 [Example 27, ethyl 5-(4-(1-(4-chloro-3-fluorophenyl)-3,3-dimethyl-2,3-dihydro-1H-pyrrolo[3,2-b]pyridine-5-carbonyl)-3,3-dimethylpiperazin-1-yl)-5-oxopentanoate]
< 500 | CCC1(CC)CN(c2ccc(Cl)c(F)c2)c2ccc(C(=O)N3CCN(c4cc(C)c(C(=O)O)c(C)n4)CC3(C)C)nc21 [Example 103, 6-(4-(1-(4-chloro-3-fluorophenyl)-3,3-diethyl-2,3-dihydro-1H-pyrrolo[3,2-b]pyridine-5-carbonyl)-3,3-dimethylpiperazin-1-yl)-2,4-dimethylnicotinic acid]
< 500 | CC1(C)CN(c2ccc(Cl)c(F)c2)c2ccc(C(=O)N3CCN(c4ncc(C(=O)O)cn4)CC3(C)C)nc21 [Example 41, 2-(4-(1-(4-chloro-3-fluorophenyl)-3,3-dimethyl-2,3-dihydro-1H-pyrrolo[3,2-b]pyridine-5-carbonyl)-3,3-dimethylpiperazin-1-yl)-pyrimidine-5-carboxylic acid hydrochloride]
> 10000 | CC1(C)CN(c2ccc(Cl)c(F)c2)c2ccc(C(=O)N3CCCC(Nc4ccc(C(=O)O)cn4)C3)nc21 (stereo not shown) [Example 109, 6-((1-(1-(4-chloro-3-fluorophenyl)-3,3-dimethyl-2,3-dihydro-1H-pyrrolo[3,2-b]pyridine-5-carbonyl)piperidin-3-yl)amino)nicotinic acid]
